According to paper PMC9186491, “Novel Small Molecule Tyrosine Kinase 2 Pseudokinase Ligands Block Cytokine-Induced TYK2-Mediated Signaling Pathways” (Frontiers in Immunology, 2022):

Columns and labels:
CYP450 1A2 = biological target: T1, CYP450 1A2 (Homo sapiens, UniProt P05177); assay: CYP450 inhibition, 1A2; type: in vitro ADME
T1 sequence (P05177 1-516): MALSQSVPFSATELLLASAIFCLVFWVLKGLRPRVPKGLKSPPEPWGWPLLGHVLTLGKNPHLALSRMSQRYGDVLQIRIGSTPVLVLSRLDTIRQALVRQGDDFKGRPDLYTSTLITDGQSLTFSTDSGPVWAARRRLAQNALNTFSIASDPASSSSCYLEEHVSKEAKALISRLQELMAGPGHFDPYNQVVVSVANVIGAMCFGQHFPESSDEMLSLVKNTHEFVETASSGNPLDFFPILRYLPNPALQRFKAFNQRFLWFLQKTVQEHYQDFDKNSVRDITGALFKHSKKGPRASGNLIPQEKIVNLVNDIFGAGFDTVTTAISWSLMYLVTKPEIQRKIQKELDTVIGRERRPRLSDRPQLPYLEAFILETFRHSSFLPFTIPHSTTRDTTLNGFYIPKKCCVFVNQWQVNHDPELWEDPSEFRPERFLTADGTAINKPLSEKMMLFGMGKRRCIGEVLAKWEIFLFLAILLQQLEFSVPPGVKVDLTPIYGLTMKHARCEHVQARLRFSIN

PPB, M = type: in vitro ADME; conditions: mouse, plasma
PPB, Mk = type: in vitro ADME; conditions: monkey, plasma
CYP450 2C9 = CYP450 2C9 (Homo sapiens, UniProt P11712); assay: CYP450 inhibition, 2C9; type: in vitro ADME
[1] = biological target: T2, JAK1 JH2 pseudokinase domain (Homo sapiens, UniProt P23458); assay: KdELECT competition binding assay, JAK1 JH2; conditions: read-out: JAK Binding Selectivity (Kd) Pseudokinase Domain (JH2) JAK1
T2 construct: purchased Eurofins DiscoverX Corporation (contract assay)
Procedure: (§1) The KdELECT competition assays were performed to test the binding affinity of compounds to the JH1 kinase region or JH2 pseudokinase region in TYK2 or JAK by ligand competition with JH1 or JH2 protein segments. The assay was carried out at Eurofins DiscoverX Corporation following the established standard protocol (DiscoverX, San Diego, CA). In this assay, compounds that bind to the kinase or pseudokinase protein regions prevent the protein binding to the immobilized ligand and reduce the amount of kinase matter captured on the solid surface. […] Dissociation constants (Kds) for test compound-kinase interactions are calculated by measuring the amount of kinase captured on the solid support as a function of the test compound concentration. […] The ligated beads were blocked with excess biotin and washed with blocking buffer to remove unbound ligand and to reduce nonspecific binding. […] All reactions were performed in polypropylene 384-well plates with a final volume of 20 μL. […] The beads were then re-suspended in the elution buffer and incubated at room temperature with shaking for 30 minutes. The kinase concentration in the eluant was measured by qPCR. Two replicates were performed and averaged to obtain the Kd measurement.

JAK1 JH1 kinase domain = biological target: T3, JAK1 JH1 kinase domain (Homo sapiens, UniProt P23458); assay: KdELECT competition binding assay, JAK1 JH1; conditions: read-out: JAK Binding Selectivity (Kd) Catalytical Domain (JH1) JAK1
T3 construct: purchased Eurofins DiscoverX Corporation (contract assay)
Procedure: as §1

[2] = test system: IFNα-induced TYK2/phosphoSTAT1 (Tyr701) in Kit225 T cells; assay: Kit225 T cell assay for IFNα-induced TYK2/phosphoSTAT1 activity; type: cell-based, human; conditions: Homo sapiens; Kit225 cells, 80 ng/mL IFNα, AlphaLISA; read-out: IC50 IFNα-induced-STAT1 Phosphorylation
Procedure: The cells were treated with serially diluted compounds for 1 hour and stimulated with 80 ng/mL human recombinant IFNα (R&D Systems) for 15 minutes. The treated cells were then lysed and cellular phosphorylated-STAT1 (Tyr701) levels were measured by AlphaLISA (PerkinElmer, Cat#ALSU-PST1) according to the manufacturer’s instructions.

PPB, H = type: in vitro ADME; conditions: human, plasma
[3] = test system: JAK1/3-dependent IL2-induced phosphorylation of STAT5 (Tyr694/699) in Kit225 cells; assay: JAK cellular selectivity assay, IL2-pSTAT5 (JAK1/3); type: cell-based; conditions: Homo sapiens; Kit225 cells; read-out: JAK Cellular Selectivity (IC50) IL2-pSTAT5 (JAK1/3)
Procedure: The cells were then ready for the assay after incubating for 2 hours in a humidified, 5% CO2 cell culture incubator at 37°C. […] The curve fit was generated, and statistical analysis was performed using GraphPad Prism. IC50 values were derived by non-linear regression analysis and defined as the compound concentration at which the response level was reduced to half of its maximum relative to a DMSO control.

CYP450 2C19 = CYP450 2C19 (Homo sapiens, UniProt P33261); assay: CYP450 inhibition, 2C19; type: in vitro ADME
[4] = biological target: T4, JAK2 JH2 pseudokinase domain (Homo sapiens, UniProt O60674); assay: KdELECT competition binding assay, JAK2 JH2; conditions: read-out: JAK Binding Selectivity (Kd) Pseudokinase Domain (JH2) JAK2
T4 construct: purchased Eurofins DiscoverX Corporation (contract assay)
Procedure: as §1

TYK2 JH1 kinase domain = biological target: T5, TYK2 JH1 kinase domain (Homo sapiens, UniProt P29597); assay: KdELECT competition binding assay, TYK2 JH1; conditions: isolated TYK2 JH1 domain
T5 construct: purchased Eurofins DiscoverX Corporation (contract assay)
T5 sequence (P29597 897-1176 limits assumed): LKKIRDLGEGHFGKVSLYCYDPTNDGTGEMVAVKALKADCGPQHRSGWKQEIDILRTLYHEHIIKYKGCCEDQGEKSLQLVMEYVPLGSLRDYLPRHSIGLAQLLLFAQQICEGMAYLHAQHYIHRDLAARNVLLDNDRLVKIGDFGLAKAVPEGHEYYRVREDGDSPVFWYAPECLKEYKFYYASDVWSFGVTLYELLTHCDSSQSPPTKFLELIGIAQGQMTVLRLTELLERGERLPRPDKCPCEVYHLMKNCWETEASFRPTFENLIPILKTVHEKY
Procedure: as §1

T2 sequence (P23458 583-855 limits assumed): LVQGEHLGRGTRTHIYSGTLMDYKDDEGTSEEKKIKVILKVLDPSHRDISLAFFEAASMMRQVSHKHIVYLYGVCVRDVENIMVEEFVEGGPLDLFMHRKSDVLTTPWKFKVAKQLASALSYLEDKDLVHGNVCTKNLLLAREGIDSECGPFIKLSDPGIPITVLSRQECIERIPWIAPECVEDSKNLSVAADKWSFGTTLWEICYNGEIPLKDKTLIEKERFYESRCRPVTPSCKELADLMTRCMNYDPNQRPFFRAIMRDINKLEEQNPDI
Sequence of CYP450 2C19 (P33261 whole entry, the tested form may be a part): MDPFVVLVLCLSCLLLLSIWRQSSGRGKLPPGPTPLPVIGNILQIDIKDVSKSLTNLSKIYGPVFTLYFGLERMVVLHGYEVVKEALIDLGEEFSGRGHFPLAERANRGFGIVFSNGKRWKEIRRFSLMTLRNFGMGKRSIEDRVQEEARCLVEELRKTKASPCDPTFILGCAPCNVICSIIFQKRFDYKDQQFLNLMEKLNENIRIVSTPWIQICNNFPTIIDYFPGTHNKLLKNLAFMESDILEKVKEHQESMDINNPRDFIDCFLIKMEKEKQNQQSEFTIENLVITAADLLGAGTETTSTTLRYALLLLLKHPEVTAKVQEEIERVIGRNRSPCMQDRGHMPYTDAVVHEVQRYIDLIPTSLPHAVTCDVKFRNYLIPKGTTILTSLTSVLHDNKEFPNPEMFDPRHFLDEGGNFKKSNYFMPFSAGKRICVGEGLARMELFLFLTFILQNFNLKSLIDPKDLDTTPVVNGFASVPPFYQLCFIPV
T3 sequence (P23458 875-1153 limits assumed): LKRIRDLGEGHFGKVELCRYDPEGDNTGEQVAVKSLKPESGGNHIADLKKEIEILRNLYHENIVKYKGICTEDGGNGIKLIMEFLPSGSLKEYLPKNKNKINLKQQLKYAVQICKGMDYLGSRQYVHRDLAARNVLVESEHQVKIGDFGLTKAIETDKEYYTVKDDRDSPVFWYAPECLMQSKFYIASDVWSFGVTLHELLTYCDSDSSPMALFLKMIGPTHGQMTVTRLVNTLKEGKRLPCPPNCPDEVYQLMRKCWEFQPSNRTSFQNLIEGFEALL
T4 sequence (O60674 545-809 limits assumed): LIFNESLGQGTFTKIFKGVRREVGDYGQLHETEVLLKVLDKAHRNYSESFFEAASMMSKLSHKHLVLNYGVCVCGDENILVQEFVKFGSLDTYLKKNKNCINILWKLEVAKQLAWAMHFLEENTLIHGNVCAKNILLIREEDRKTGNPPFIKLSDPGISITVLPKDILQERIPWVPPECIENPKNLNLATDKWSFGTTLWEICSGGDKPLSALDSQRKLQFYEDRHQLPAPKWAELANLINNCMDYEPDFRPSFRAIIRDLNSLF
Sequence of CYP450 2C9 (P11712 whole entry, the tested form may be a part): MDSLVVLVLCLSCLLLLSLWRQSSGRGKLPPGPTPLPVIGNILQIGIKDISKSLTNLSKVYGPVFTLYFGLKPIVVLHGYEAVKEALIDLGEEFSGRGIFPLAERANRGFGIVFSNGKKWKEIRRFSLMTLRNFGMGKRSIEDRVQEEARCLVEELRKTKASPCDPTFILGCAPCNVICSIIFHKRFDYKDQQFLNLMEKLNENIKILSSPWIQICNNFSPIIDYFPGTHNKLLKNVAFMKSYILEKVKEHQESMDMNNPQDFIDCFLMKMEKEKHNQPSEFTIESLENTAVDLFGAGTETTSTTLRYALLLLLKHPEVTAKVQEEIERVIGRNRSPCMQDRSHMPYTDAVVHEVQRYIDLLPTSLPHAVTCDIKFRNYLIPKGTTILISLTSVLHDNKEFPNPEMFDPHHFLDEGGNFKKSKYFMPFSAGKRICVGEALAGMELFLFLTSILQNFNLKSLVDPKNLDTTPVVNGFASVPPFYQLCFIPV

Row | SMILES | IC50 (CYP450 1A2) [nM] | fraction unbound (PPB, M) | fraction unbound (PPB, Mk) | IC50 (CYP450 2C9) [nM] | Kd [1] [nM] | Kd (JAK1 JH1 kinase domain) [nM] | IC50 [2] [nM] | fraction unbound (PPB, H) | IC50 [3] [nM] | IC50 (CYP450 2C19) [nM] | Kd [4] [nM] | Kd (TYK2 JH1 kinase domain) [nM]
1 | CNC(=O)c1nnc(NC(=O)C2CC2)c2[nH]c(-c3ccc(N)cc3OC)cc12 [SHR2396] | > 30000 | 0.0292 | 0.0351 | > 30000 | 0.52 ± 0.4 | > 20000 | 15 | 0.0258 | 1400 ± 1400 | > 30000 | 190 ± 99 | 300
2 | [2H]C([2H])([2H])NC(=O)c1nnc(NC(=O)N2CCC2)cc1Nc1cccc(-c2ncn(C)n2)c1OC [SHR9332] | > 30000 | 0.249 | 0.231 | > 30000 | 1.8 | > 20000 | 76 | 0.274 | > 10000 | > 30000 | 220 | > 20000
3 | CNC(=O)c1nnc(NC(=O)N2CCC2)cc1Nc1cccc(-c2ncn(C)n2)c1OC [SHR8751] | > 30000 | 0.35 | 0.281 | > 30000 | 3.7 ± 0.14 | > 20000 | 37 | 0.402 | > 10000 | > 30000 | 290 ± 99 | > 20000
